Source: publication PMC4868058, “A critical role for the Drosophila dopamine D1-like receptor Dop1R2 at the onset of metamorphosis” (BMC Developmental Biology, 2016)
Counter-ions that a name gives are not always drawn.

How the values were obtained:
Dop1R2 [1] = target: T1, Dop1R2 (Drosophila melanogaster, UniProt Q24563); assay: CRE-luciferase reporter assay in transfected HEK293 cells; type: cell-based
T1 construct: receptor cDNA in pcDNA1.1, transiently expressed in HEK293 with CRE-luciferase reporter
T1 sequence (Q24563 1-539): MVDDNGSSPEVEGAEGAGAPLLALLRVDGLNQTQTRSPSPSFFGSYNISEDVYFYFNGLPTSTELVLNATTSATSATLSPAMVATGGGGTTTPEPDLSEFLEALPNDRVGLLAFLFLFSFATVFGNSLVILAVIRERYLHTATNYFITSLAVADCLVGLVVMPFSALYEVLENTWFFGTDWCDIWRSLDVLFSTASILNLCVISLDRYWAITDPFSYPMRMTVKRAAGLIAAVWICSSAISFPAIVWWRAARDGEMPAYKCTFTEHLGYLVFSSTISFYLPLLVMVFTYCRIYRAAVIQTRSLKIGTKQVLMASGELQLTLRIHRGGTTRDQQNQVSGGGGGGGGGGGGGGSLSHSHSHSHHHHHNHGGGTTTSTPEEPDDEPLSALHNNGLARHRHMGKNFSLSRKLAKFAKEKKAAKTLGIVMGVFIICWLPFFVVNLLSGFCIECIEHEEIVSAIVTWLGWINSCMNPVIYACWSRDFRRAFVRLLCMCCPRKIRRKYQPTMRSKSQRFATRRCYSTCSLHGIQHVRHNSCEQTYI

Dop1R2 [2] = target: T1, Dop1R2; assay: as above; type: cell-based; remark: listed apart in the source

Row | SMILES | IC50 (Dop1R2 [1]) [nM] | EC50 (Dop1R2 [2]) [nM]
1 | OCCN1CCN(CCC=C2c3ccccc3Sc3ccc(C(F)(F)F)cc32)CC1 [flupenthixol dihydrochloride] | 260 | 
2 | NCCc1ccc(O)c(O)c1 [dopamine hydrochloride] |  | 270
